US12441704B2, “Compounds active towards nuclear receptors” (NUEVOLUTION A/S, priority 2019, dated 2025)
pEC50: −log10 of the molar value.

The compounds below were run against T1, RORγ ligand-binding domain fused to Gal4 (Homo sapiens, UniProt P51449) (assay: RORγ Reporter Assay (Gal4)). Conditions: HEK293 cells co-transfected with RORγ LBD-Gal4 and luciferase reporter; 24 h incubation; absolute EC50; read-out: EC50.
T1 construct: Gal4 (galactose-responsive transcription factor); expressed in transfected cells; host or cells: HEK293
T1 sequence (P51449 269-508 limits assumed): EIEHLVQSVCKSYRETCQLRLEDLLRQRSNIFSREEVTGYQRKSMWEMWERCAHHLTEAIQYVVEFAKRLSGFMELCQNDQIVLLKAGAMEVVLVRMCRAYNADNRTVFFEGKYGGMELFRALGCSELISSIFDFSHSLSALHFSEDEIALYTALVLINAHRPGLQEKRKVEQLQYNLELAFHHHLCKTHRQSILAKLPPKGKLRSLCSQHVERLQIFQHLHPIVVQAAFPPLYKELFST
Type: cell-based
Description: The HEK293 cell line is co-transfected transiently with two plasmids, one with the RORγ ligand-binding domain fused to galactose-responsive transcription factor (Gal4), and the other with the luciferase reporter gene and Gal binding sites (UAS). This construction allows to determine the RORγ activity in a cellular system through the measurement of luminescence.
A suspension of RORγ reporter cells was dispensed into plates and cultured 2 h at 37° C. and 5% CO2. Media formulation consisted in DMEM/F-12 medium (Gibco) supplemented with 10% heat inactivated FBS (Sigma-Aldrich), non-essential aminoacids (Sigma-Aldrich), 2 mM Glutamax (Gibco) and 100 U/mL penicillin (Sigma-Aldrich). Dose-response curves with compounds were prepared in 100% DMSO and further diluted 100-fold in culture medium. Compound solutions were added to the plate containing cells (final DMSO concentration of 0.1%) and incubated for 24 h at 37° C. and 5% CO2. Luciferase detection reagent was added to each well, and relative light units (RLUs) were quantified from each assay well using a plate reading luminometer.
Values of average RLU±S.D. were computed for all treatment sets, followed by the calculations of percent-reduction of RORγ activity in response to respective test compound. The following formula was used: activity=100*[1−[x test compound/average vehicle] where the theoretical minimum reduction (0% reduction).
`NC(=O)CN1CC[C@H](CNc2ncnc(N(Cc3cnc(C(F)(F)F)nc3)C3CCC3)c2F)[C@@H](O)C1` (racemic) [Example A7-18, rac-2-((3R,4R)-4-(((6-(cyclobutyl((2-(trifluoromethyl)pyrimidin-5-yl)methyl)amino)-5-fluoropyrimidin-4-yl)amino)methyl)-3-hydroxypiperidin-1-yl)acetamide] showed a pEC50 of 6.89.
With `CC(C)N(Cc1ccc(C(F)(F)F)cc1)c1ncnc(NC[C@H]2CCN(CC(N)=O)C[C@@H]2O)c1F` (racemic) [Example A7-19, rac-2-((3R,4R)-4-(((5-fluoro-6-(isopropyl(4-(trifluoromethyl)benzyl)amino)pyrimidin-4-yl)amino)methyl)-3-hydroxypiperidin-1-yl)acetamide] the pEC50 was 7.38.
In the case of `CN(Cc1ccc(C(F)(F)F)cc1)c1ncnc(NC[C@H]2CCN(CC(N)=O)C[C@@H]2O)c1F` (racemic) [Example A7-20, rac-2-((3R,4R)-4-(((5-fluoro-6-(methyl(4-(trifluoromethyl)benzyl)amino)pyrimidin-4-yl)amino)methyl)-3-hydroxypiperidin-1-yl)acetamide], the pEC50 was 7.59.
`NC(=O)CN1CC[C@H](CNc2ncnc(N(Cc3ccc(C(F)(F)F)cc3F)C3CC3)c2F)[C@@H](O)C1` (racemic) [Example A7-22, rac-2-((3R,4R)-4-(((6-(cyclopropyl(2-fluoro-4-(trifluoromethyl)benzyl)amino)-5-fluoropyrimidin-4-yl)amino)methyl)-3-hydroxypiperidin-1-yl)acetamide] gave a pEC50 of 8.40.
Work on `NC(=O)CN1CC[C@@H](CNc2ncnc(N(Cc3ccc(C(F)(F)F)nc3)C3CCC3)c2F)[C@H](O)C1` (racemic) [Example A7-23, rac-2-((3R,4R)-4-(((6-(cyclobutyl((6-(trifluoromethyl)pyridin-3-yl)methyl)amino)-5-fluoropyrimidin-4-yl)amino)methyl)-3-hydroxypiperidin-1-yl)acetamide] yielded a pEC50 of 7.09.
`NC(=O)CN1CC[C@@H](CNc2ncnc(N(Cc3ccc(C(F)(F)F)cn3)C3CCC3)c2F)[C@H](O)C1` (racemic) [Example A7-24, rac-2-((3R,4R)-4-(((6-(cyclobutyl((5-(trifluoromethyl)pyridin-2-yl)methyl)amino)-5-fluoropyrimidin-4-yl)amino)methyl)-3-hydroxypiperidin-1-yl)acetamide] gave a pEC50 of 6.92.
Compound `CCN(Cc1ccc(C(F)(F)F)cn1)c1ncnc(NC[C@@H]2CCN(CC(N)=O)C[C@H]2O)c1F` (racemic) [Example A7-27, rac-2-((3R,4R)-4-(((6-(ethyl((5-(trifluoromethyl)pyridin-2-yl)methyl)amino)-5-fluoropyrimidin-4-yl)amino)methyl)-3-hydroxypiperidin-1-yl)acetamide] has a pEC50 of 6.27.
In the case of `NC(=O)CN1CC[C@@H](CNc2ncnc(N(CCF)Cc3ccc(C(F)(F)F)cc3)c2F)[C@H](O)C1` (racemic) [Example A7-30, rac-2-((3R,4R)-4-(((5-fluoro-6-((2-fluoroethyl)(4-(trifluoromethyl)benzyl)amino)pyrimidin-4-yl)amino)methyl)-3-hydroxypiperidin-1-yl)acetamide], the pEC50 was under 6.00.
`NC(=O)CN1CC[C@@H](CNc2ncnc(N(Cc3ccc(C(F)(F)F)cc3)C3CC3)c2F)[C@@H](O)C1` (racemic) [Example A7-49, rac-2-((3R,4S)-4-(((6-(cyclopropyl(4-(trifluoromethyl)benzyl)amino)-5-fluoropyrimidin-4-yl)amino)methyl)-3-hydroxypiperidin-1-yl)acetamide] showed a pEC50 of 6.77.
`NC(=O)C(C1CCOCC1)N1CC[C@@H](CNc2ncnc(N(Cc3ccc(C(F)(F)F)cc3)C3CC3)c2F)[C@H](O)C1` (mixture of isomers) [Example A7-71, rac-2-((3R,4R)-4-(((6-(Cyclopropyl(4-(trifluoromethyl)benzyl)amino)-5-fluoropyrimidin-4-yl)amino)methyl)-3-hydroxypiperidin-1-yl)-2-(tetrahydro-2H-pyran-4-yl)acetamide] was tested, and the pEC50 was 8.41.
Compound `CCN(Cc1ccc(-c2cnn(C)c2)cc1)c1ncnc(NC[C@@H]2CCN(CC(N)=O)C[C@H]2O)c1F` (racemic) [Example A7-72, rac-2-((3R,4R)-4-(((6-(ethyl(4-(1-methyl-1H-pyrazol-4-yl)benzyl)amino)-5-fluoropyrimidin-4-yl)amino)methyl)-3-hydroxypiperidin-1-yl)acetamide] has a pEC50 of 7.28.
`CCN(Cc1ccc(-c2cnn(CCO)c2)cc1)c1ncnc(NC[C@@H]2CCN(CC(N)=O)C[C@H]2O)c1F` (racemic) [Example A7-73, rac-2-((3R,4R)-4-(((6-(ethyl(4-(1-(2-hydroxyethyl)-1H-pyrazol-4-yl)benzyl)amino)-5-fluoropyrimidin-4-yl)amino)methyl)-3-hydroxypiperidin-1-yl)acetamide] was tested, and the pEC50 was 7.00.
`CCN(Cc1ccc(C(F)(F)CO)cc1)c1ncnc(NC[C@@H]2CCN(CC(N)=O)C[C@H]2O)c1F` (racemic) [Example A7-79, rac-2-((3R,4R)-4-(((6-((4-(1,1-difluoro-2-hydroxyethyl)benzyl)(ethyl)amino)-5-fluoropyrimidin-4-yl)amino)methyl)-3-hydroxypiperidin-1-yl)acetamide] showed a pEC50 of 6.79.
For `NC(=O)CN1CC[C@H](CNc2ncnc(N(Cc3ccc(C(F)(F)F)cn3)C3CC3)c2F)[C@@H](F)C1` (relative stereo) [Example A7-04-2, rel-2-((3R,4R)-4-(((6-(cyclopropyl((5-(trifluoromethyl)pyridin-2-yl)methyl)amino)-5-fluoropyrimidin-4-yl)amino)methyl)-3-fluoropiperidin-1-yl)acetamide], the pEC50 was 7.05.
Work on `NC(=O)CN1CC[C@H](CNc2ncnc(N(Cc3ccc(C(F)(F)F)cc3)C3CC3)c2F)[C@@H](F)C1` (relative stereo) [Example A7-05-2, rel-2-((3R,4R)-4-(((6-(cyclopropyl(4-(trifluoromethyl)benzyl)amino)-5-fluoropyrimidin-4-yl)amino)methyl)-3-fluoropiperidin-1-yl)acetamide] yielded a pEC50 of 7.85.
In the case of `CC(C)N(Cc1ccc(C(F)(F)F)cc1)c1ncnc(NC[C@H]2CCN(CC(N)=O)C[C@@H]2O)c1F` (relative stereo) [Example A7-19-1, rel-2-((3R,4R)-4-(((5-fluoro-6-(isopropyl(4-(trifluoromethyl)benzyl)amino)pyrimidin-4-yl)amino)methyl)-3-hydroxypiperidin-1-yl)acetamide], the pEC50 was 7.40.
`CC(F)(F)c1ccc(CN(c2ncnc(NC[C@H]3CCN(CC(N)=O)C[C@@H]3O)c2F)C2CC2)cn1` (relative stereo) [Example A7-29-2, rel-2-((3R,4R)-4-(((6-(cyclopropyl((6-(1,1-difluoroethyl)pyridin-3-yl)methyl)amino)-5-fluoropyrimidin-4-yl)amino)methyl)-3-hydroxypiperidin-1-yl)acetamide] was tested, and the pEC50 was 7.15.
In the case of `CCN(Cc1ccc(C(F)(F)F)cc1)c1ncnc(NC[C@@H]2CCN(C(CCO)C(N)=O)C[C@H]2O)c1F` (relative stereo) [Example A7-67, rel-2-((3R,4R)-4-(((6-(ethyl(4-(trifluoromethyl)benzyl)amino)-5-fluoropyrimidin-4-yl)amino)methyl)-3-hydroxypiperidin-1-yl)-4-hydroxybutanamide], the pEC50 was 7.37.
`NC(=O)CN1CC[C@@](O)(CNc2ncnc(N(Cc3ccc(C(O)(C(F)(F)F)C(F)(F)F)cc3)C3CC3)c2F)[C@H](O)C1` (relative stereo) [Example D5-06, rel-2-((3R,4R)-4-(((6-(cyclopropyl(4-(1,1,1,3,3,3-hexafluoro-2-hydroxypropan-2-yl)benzyl)amino)-5-fluoropyrimidin-4-yl)amino)methyl)-3,4-dihydroxypiperidin-1-yl)acetamide] showed a pEC50 of 7.80.
In the case of `NC(=O)CN1CC[C@](O)(CNc2ncnc(N(Cc3ccccc3F)C3CC3)c2F)[C@@H](O)C1` (relative stereo) [Example D5-10, rel-2-((3R,4R)-4-(((6-(cyclopropyl(2-fluorobenzyl)amino)-5-fluoropyrimidin-4-yl)amino)methyl)-3,4-dihydroxypiperidin-1-yl)acetamide], the pEC50 was under 6.00.

Same assay, conditions: compounds of the present disclosure; source: Table 2 herein; read-out: Gal4 assay EC50
For `NC(=O)CN1CC[C@H](CNc2ncnc(N(Cc3ccc(C(F)(F)F)cc3)C3CC3)c2F)[C@@H](F)C1` (single isomer, unassigned) [Example A7-05-1], the pEC50 was over 7.00.

Same assay, conditions: compounds of the present disclosure; value from Table 2 herein; read-out: Gal4 assay EC50
`CN(Cc1cccc(OC(F)(F)F)c1)c1ncnc(NC[C@@H]2CCN(CC(N)=O)C[C@H]2O)c1F` (racemic) [Example F2-07, rac-2-((3R,4R)-4-(((5-fluoro-6-(methyl(3-(trifluoromethoxy)benzyl)amino)pyrimidin-4-yl)amino)methyl)-3-hydroxypiperidin-1-yl)acetamide] gave a pEC50 of over 7.00.
